Source: ChEMBL document CHEMBL2073919, “cDNA cloning and functional characterization of rat intestinal monocarboxylate transporter” (Biochem Biophys Res Commun, 1995)

Molecular target: T1, Monocarboxylate transporter 1 (Rattus norvegicus) (UniProt P53987)
T1 sequence (whole entry): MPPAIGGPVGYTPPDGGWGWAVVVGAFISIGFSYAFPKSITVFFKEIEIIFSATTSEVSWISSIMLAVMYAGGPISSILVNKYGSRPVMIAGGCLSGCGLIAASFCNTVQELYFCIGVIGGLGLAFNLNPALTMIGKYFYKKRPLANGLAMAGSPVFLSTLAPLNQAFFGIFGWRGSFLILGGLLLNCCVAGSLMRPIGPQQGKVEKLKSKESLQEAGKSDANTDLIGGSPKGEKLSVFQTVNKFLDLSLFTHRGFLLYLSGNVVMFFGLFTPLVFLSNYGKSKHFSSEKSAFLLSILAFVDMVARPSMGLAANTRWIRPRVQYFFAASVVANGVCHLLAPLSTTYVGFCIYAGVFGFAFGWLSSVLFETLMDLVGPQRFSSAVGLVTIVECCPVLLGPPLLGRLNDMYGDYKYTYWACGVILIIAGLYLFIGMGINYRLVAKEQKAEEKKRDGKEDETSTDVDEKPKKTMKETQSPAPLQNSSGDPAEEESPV
Test: TP_TRANSPORTER: uptake in Xenopus laevis oocytes
Assay type: functional, cell-based
Details: Oocyte

Activity | SMILES
substrate [+] | C[C@H](O)C(=O)O
substrate [+] | C[C@@H](O)C(=O)O
